Source: ChEMBL document CHEMBL5576049, “Synthesis and cytotoxicity of novel 6,8,9-trisubstituted purine analogs against liver cancer cells” (Bioorg Med Chem Lett, 2024)
Activity calls are given as the source filed them. The rule behind the calls is not given here.

How the values were obtained:
Type in all cases: functional, cell-based
Huh-7 = assay: Cytotoxicity against human Huh-7 cells assessed as cell growth inhibition incubated for 72 hrs by SRB assay; conditions: for IC50: Huh-7, 72 h
HCT-116 = assay: Cytotoxicity against human HCT-116 cells assessed as cell growth inhibition incubated for 72 hrs by SRB assay; conditions: for IC50: HCT-116, 72 h
MCF7 = assay: Cytotoxicity against human MCF7 cells assessed as cell growth inhibition incubated for 72 hrs by SRB assay; conditions: for IC50: MCF7, 72 h
Hep 3B2 = assay: Cytotoxicity against human Hep3B cells assessed as cell growth inhibition incubated for 72 hrs by SRB assay
HepG2 = assay: Cytotoxicity against human HepG2 cells assessed as cell growth inhibition incubated for 72 hrs by SRB assay; conditions: HepG2, 72 h
PLC = assay: Cytotoxicity against human PLC cells assessed as cell growth inhibition incubated for 72 hrs by SRB assay
Mahlavu = assay: Cytotoxicity against human Mahlavu cells assessed as cell growth inhibition incubated for 72 hrs by SRB assay
[1] = Cytotoxicity against human FOCUS cells assessed as cell growth inhibition incubated for 72 hrs by SRB assay
SNU-475 = assay: Cytotoxicity against human SNU-475 cells assessed as cell growth inhibition by SRB assay
SNU-182 = assay: Cytotoxicity against human SNU-182 cells assessed as cell growth inhibition incubated for 72 hrs by SRB assay; conditions: SNU-182, 72 h
SNU-387 = assay: Cytotoxicity against human SNU-387 cells assessed as cell growth inhibition incubated for 72 hrs by SRB assay; conditions: SNU-387, 72 h
SNU-398 = assay: Cytotoxicity against human SNU-398 cells assessed as cell growth inhibition incubated for 72 hrs by SRB assay; conditions: SNU-398, 72 h
SNU-423 = assay: Cytotoxicity against human SNU-423 cells assessed as cell growth inhibition incubated for 72 hrs by SRB assay; conditions: SNU-423, 72 h
SNU-449 = assay: Cytotoxicity against human SNU-449 cells assessed as cell growth inhibition incubated for 72 hrs by SRB assay; conditions: SNU-449, 72 h

Compound	IC50 (Huh-7) [µM]	IC50 (HCT-116) [µM]	IC50 (MCF7) [µM]	Activity (HCT-116)	also measured
Clc1ccc(-c2nc3c(N4CCN(c5ccccc5)CC4)ncnc3n2C2CCCC2)cc1	23.2	5.8	19.8	–	–
Cc1ccc(-c2nc3c(N4CCN(c5ccc(C(F)(F)F)cc5)CC4)ncnc3n2C2CCCC2)cc1	13.1	34.3	26.2	–	–
COc1ccc(-c2nc3c(N4CCN(c5ccc(C)cc5)CC4)ncnc3n2C2CCCC2)cc1	–	–	58.4	inactive	Activity (Huh-7): inactive
COc1ccc(-c2nc3c(N4CCN(c5ccc(C(F)(F)F)cc5)CC4)ncnc3n2C2CCCC2)cc1	9.8	–	–	inactive	Activity (MCF7): inactive
Cc1ccc(-c2nc3c(N4CCN(c5ccccc5)CC4)ncnc3n2C2CCCC2)cc1	12.9	18.8	21.4	–	–
FC(F)(F)c1ccc(-c2nc3c(N4CCN(c5ccc(C(F)(F)F)cc5)CC4)ncnc3n2C2CCCC2)cc1	9.3	10.8	6.1	–	IC50 (Hep 3B2): 10.3 µM; IC50 (HepG2): 6.6 µM; IC50 (PLC): 99.1 µM; IC50 (Mahlavu): 19.8 µM; IC50 [1]: 4.5 µM; IC50 (SNU-475): 17 µM; IC50 (SNU-182): 16.4 µM; IC50 (SNU-387): 98.7 µM; IC50 (SNU-398): 19 µM; IC50 (SNU-423): 24.9 µM; IC50 (SNU-449): 60.6 µM
COc1ccc(-c2nc3c(N4CCN(c5ccccc5)CC4)ncnc3n2C2CCCC2)cc1	57.1	42.3	–	–	Activity (MCF7): inactive
Nc1nc(F)nc2c1ncn2[C@@H]1O[C@H](CO)[C@@H](O)[C@@H]1O [FLUDARABINE]	28.4	–	–	–	–
Cc1ccc(N2CCN(c3ncnc4c3nc(-c3ccc(Cl)cc3)n4C3CCCC3)CC2)cc1	15.7	6.5	21.6	–	–
COc1ccc(-c2nc3c(N4CCN(c5ccc(Cl)cc5)CC4)ncnc3n2C2CCCC2)cc1	5.5	30.9	69.8	–	–
Cc1ccc(N2CCN(c3ncnc4c3nc(-c3ccc(C(F)(F)F)cc3)n4C3CCCC3)CC2)cc1	16.1	46.2	30.1	–	–
O=c1[nH]cc(F)c(=O)[nH]1 [FLUOROURACIL]	–	4.1	–	–	–
Clc1ccc(N2CCN(c3ncnc4c3nc(-c3ccc(Br)cc3)n4C3CCCC3)CC2)cc1Cl	–	–	60.7	inactive	Activity (Huh-7): inactive
Brc1ccc(-c2nc3c(N4CCN(c5ccccc5)CC4)ncnc3n2C2CCCC2)cc1	11.1	28.8	15	–	–
Fc1ccc(-c2nc3c(N4CCN(c5ccccc5)CC4)ncnc3n2C2CCCC2)cc1	11.4	13.7	68.2	–	–
Clc1ccc(-c2nc3c(N4CCN(c5ccc(Cl)cc5)CC4)ncnc3n2C2CCCC2)cc1	39	64.9	35.8	–	–
Clc1ccc(N2CCN(c3ncnc4c3nc(-c3ccc(Br)cc3)n4C3CCCC3)CC2)cc1	–	–	51.6	inactive	Activity (Huh-7): inactive

Compound	IC50 (Huh-7) [µM]	IC50 (HCT-116) [µM]	IC50 (MCF7) [µM]	Activity (HCT-116)	also measured
Cc1ccc(N2CCN(c3ncnc4c3nc(-c3ccc(Br)cc3)n4C3CCCC3)CC2)cc1	28.4	52.3	24.8	–	–
Fc1ccc(-c2nc3c(N4CCN(c5ccc(C(F)(F)F)cc5)CC4)ncnc3n2C2CCCC2)cc1	11.4	13.5	32.4	–	–
Cc1ccc(-c2nc3c(N4CCN(c5ccc(C)cc5)CC4)ncnc3n2C2CCCC2)cc1	17.4	33.4	47.5	–	–
FC(F)(F)c1ccc(-c2nc3c(N4CCN(c5ccccc5)CC4)ncnc3n2C2CCCC2)cc1	7.6	25.3	25.9	–	–
Fc1ccc(-c2nc3c(N4CCN(c5ccc(Cl)c(Cl)c5)CC4)ncnc3n2C2CCCC2)cc1	30	50.6	–	–	Activity (MCF7): inactive
Cc1ccc(-c2nc3c(N4CCN(c5ccc(Cl)cc5)CC4)ncnc3n2C2CCCC2)cc1	61.8	–	–	inactive	Activity (MCF7): inactive
Fc1ccc(-c2nc3c(N4CCN(c5ccc(Cl)cc5)CC4)ncnc3n2C2CCCC2)cc1	20.2	51.4	–	–	Activity (MCF7): inactive
Clc1ccc(-c2nc3c(N4CCN(c5ccc(Cl)c(Cl)c5)CC4)ncnc3n2C2CCCC2)cc1	58.7	–	–	inactive	Activity (MCF7): inactive
COc1ccc(-c2nc3c(N4CCN(c5ccc(Cl)c(Cl)c5)CC4)ncnc3n2C2CCCC2)cc1	7.4	33.6	30.6	–	–
Cc1ccc(N2CCN(c3ncnc4c3nc(-c3ccc(F)cc3)n4C3CCCC3)CC2)cc1	20.8	26.1	–	–	Activity (MCF7): inactive
FC(F)(F)c1ccc(N2CCN(c3ncnc4c3nc(-c3ccc(Br)cc3)n4C3CCCC3)CC2)cc1	58.1	58.5	17.4	–	–
Cc1ccc(-c2nc3c(N4CCN(c5ccc(Cl)c(Cl)c5)CC4)ncnc3n2C2CCCC2)cc1	–	–	–	inactive	Activity (Huh-7): inactive; Activity (MCF7): inactive
Nc1nc(Cl)nc2c1ncn2[C@H]1C[C@H](O)[C@@H](CO)O1 [CLADRIBINE]	0.9	< 0.1	2.4	–	IC50 (Mahlavu): < 0.1 µM; IC50 [1]: < 0.1 µM; IC50 (SNU-398): < 0.1 µM
FC(F)(F)c1ccc(N2CCN(c3ncnc4c3nc(-c3ccc(Cl)cc3)n4C3CCCC3)CC2)cc1	19.4	–	30.3	inactive	–
FC(F)(F)c1ccc(-c2nc3c(N4CCN(c5ccc(Cl)cc5)CC4)ncnc3n2C2CCCC2)cc1	61.4	–	57.9	inactive	–
FC(F)(F)c1ccc(-c2nc3c(N4CCN(c5ccc(Cl)c(Cl)c5)CC4)ncnc3n2C2CCCC2)cc1	35.1	–	7.2	inactive	–
